Laboratory results reported in patent publication US11225460B2, “Pyrrolidineamide derivatives and uses thereof” (SUNSHINE LAKE PHARMA CO., LTD., priority 2019, dated 2022).
Like-named read-outs stand apart in the source and are kept apart here.

Assays:
[1] = Evaluation of blood-brain barrier (BBB) after peritoneal injection in rats; type: in vivo; conditions: SD rats, intraperitoneal 10 mg/kg; for Kp at 15 min / Kp at 60 min / Kp at 120 min: Sprague-Dawley, rat
Experimental: The analysis method was the same as example B.
The experiment was divided into three groups: 15 min group, 1 h group and 2 h group. After overnight fasting for 12 hours, SD rats were administered by intraperitoneal injection with the compound of the invention in the form of 5% DMSO+5% Kolliphor HS15+90% Saline solution at a dose of 10 mg/kg. Blood, cerebrospinal fluid and brain tissue were collected at 15 minutes, 1 hour and 2 hours respectively after administration. Blood samples were centrifuged at 3,000 or 4,000 rpm for 10 minutes. The plasma solution was collected and kept at −20° C. or −70° C. The cerebrospinal fluid was processed using a protein precipitation method. A certain volume of cerebrospinal fluid sample were precisely absorbed and precipitated by adding 5 times acetonitrile solution containing internal standard. The mixture was mixed well by vortexing, and then centrifuged for 2 minutes at 12,000 rpm at 4° C., the supernatant was kept at −80° C. Brain tissue was homogenized with 2 times methanol solution, and centrifuged to get the supernatant, the supernatant were precipitated by adding 5 times acetonitrile solution containing internal standard.
The mixture was mixed well by vortexing, and then centrifuged for 2 minutes at 12,000 rpm at 4° C., the supernatant was kept at −80° C. LC-MS/MS method was used to detect the concentration of target compounds, BBB permeability was calculated and statistical analysis was carried out.

[2] = target: T1, potassium channel of hERG (Homo sapiens, UniProt Q12809); assay: Inhibitory effect on potassium channel of hERG by electrophysiological manual patch clamp; type: cell-based; conditions: HEK-293 cells overexpressed potassium channel of hERG, 0.37-30.00 μM, read-out: IC50 acting on hERG potassium channel
T1 construct: expressed in transfected cells; host or cells: HEK-293 cells
Experimental: The cell line was derived from HEK-293 cells overexpressed potassium channel of hERG.
The cells were cultured in a5% CO2 incubator at 37° C. When the cell density reached 80% of the culture dish, the cells were pre-cleaned with phosphate buffer (PBS), and then digested with trypsin/EDTA for 2-3 minutes. and then the cell culture medium was added to stop digestion. The cells were blew with a pipette gently and transferred to a centrifugal tube. The cells were centrifuged for 3 minutes at 1,000 rpm. The supernatant was poured out. The cell culture medium was added and blew gently to mix the cells well. Then the cells were transferred to a culture dish for subculture, or the cells were dropped onto a circular slide and placed in a culture dish until cell adherence for experiment. […]
hERG potassium channel current was recorded by using the whole cell recording mode. Firstly, the extracellular fluid (about 2 milliliters per minute) was perfused and recorded continuously, and waiting the current stabilization (Run-Down was less than 5% in 5 minutes). […] Then the extracellular fluid containing the tested compounds was perfused (the concentration of the tested compounds were 0.37 μM, 1.10 μM, 3.30 μM, 10.00 μM and 30.00 μM, respectively) and current value was recorded continuously until the inhibitory effect of the tested compounds on hERG current reached a stable state. […]

[3] = brain, 15 min, read-out: T/P Ratio Brain (brain tissue)
[4] = brain, 60 min, read-out: T/P Ratio Brain (brain tissue)
[5] = brain, 120 min, read-out: T/P Ratio Brain (brain tissue)
[6] = cerebrospinal fluid, 15 min, read-out: T/P Ratio CSF (cerebrospinal fluid)
[7] = cerebrospinal fluid, 60 min, read-out: T/P Ratio CSF (cerebrospinal fluid)
[8] = cerebrospinal fluid, 120 min, read-out: T/P Ratio CSF (cerebrospinal fluid)

T1 sequence (Q12809 whole entry): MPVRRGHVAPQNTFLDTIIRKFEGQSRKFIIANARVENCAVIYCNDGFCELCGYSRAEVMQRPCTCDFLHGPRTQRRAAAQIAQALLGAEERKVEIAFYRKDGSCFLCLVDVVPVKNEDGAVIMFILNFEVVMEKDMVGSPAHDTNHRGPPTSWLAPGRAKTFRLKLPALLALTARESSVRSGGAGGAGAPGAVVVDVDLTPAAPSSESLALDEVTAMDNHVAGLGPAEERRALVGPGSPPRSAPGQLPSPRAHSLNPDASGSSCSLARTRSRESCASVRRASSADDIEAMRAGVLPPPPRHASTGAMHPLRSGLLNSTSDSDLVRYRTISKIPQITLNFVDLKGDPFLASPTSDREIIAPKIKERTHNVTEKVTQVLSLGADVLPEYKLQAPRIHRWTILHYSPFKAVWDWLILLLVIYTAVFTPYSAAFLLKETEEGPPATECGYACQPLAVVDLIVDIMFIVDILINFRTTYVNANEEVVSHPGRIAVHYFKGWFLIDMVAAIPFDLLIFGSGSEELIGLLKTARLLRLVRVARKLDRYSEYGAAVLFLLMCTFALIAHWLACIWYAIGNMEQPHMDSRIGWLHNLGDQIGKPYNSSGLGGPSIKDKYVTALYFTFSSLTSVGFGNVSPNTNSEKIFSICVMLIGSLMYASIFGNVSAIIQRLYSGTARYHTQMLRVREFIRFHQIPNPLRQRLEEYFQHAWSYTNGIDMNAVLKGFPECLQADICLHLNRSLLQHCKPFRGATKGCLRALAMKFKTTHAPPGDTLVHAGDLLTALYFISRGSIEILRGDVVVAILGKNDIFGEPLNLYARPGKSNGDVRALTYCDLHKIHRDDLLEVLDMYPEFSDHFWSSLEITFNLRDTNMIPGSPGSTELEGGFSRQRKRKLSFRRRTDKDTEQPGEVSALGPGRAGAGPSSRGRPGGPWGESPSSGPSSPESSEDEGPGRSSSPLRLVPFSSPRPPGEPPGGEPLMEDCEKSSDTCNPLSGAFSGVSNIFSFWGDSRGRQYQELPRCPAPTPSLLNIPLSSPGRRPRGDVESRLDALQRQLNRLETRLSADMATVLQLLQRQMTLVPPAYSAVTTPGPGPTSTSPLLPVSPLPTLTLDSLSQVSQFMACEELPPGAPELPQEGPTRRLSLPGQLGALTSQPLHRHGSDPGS

SMILES	Conc. Brain (brain tissue) ([1]; 15 min)	Conc. CSF (cerebrospinal fluid) ([1]; 15 min)	Conc. Plasm (plasma) ([1]; 15 min)	Conc. Brain (brain tissue) ([1]; 60 min)	Conc. CSF (cerebrospinal fluid) ([1]; 60 min)	Conc. Plasm (plasma) ([1]; 60 min)	Conc. Brain (brain tissue) ([1]; 120 min)	Conc. CSF (cerebrospinal fluid) ([1]; 120 min)	Conc. Plasm (plasma) ([1]; 120 min)	Kp at 15 min [1, 3]	Kp at 60 min [1, 4]	Kp at 120 min [1, 5]	Kp at 15 min [1, 6]	Kp at 60 min [1, 7]	Kp at 120 min [1, 8]	IC50 [2] [µM]
NC(=O)[C@@H]1C[C@H](F)CN1Cc1ccc(OCc2cccc(F)c2)cc1 [Example 1, (2S,4S)-4-fluoro-1-(4-(3-fluorobenzyloxy)benzyl)pyrrolidine-2-formamide]	10243.33 ng/g or ng/ml	147.67 ng/g or ng/ml	5203.33 ng/g or ng/ml	9273.33 ng/g or ng/ml	61.9 ng/g or ng/ml	2073.33 ng/g or ng/ml	2890 ng/g or ng/ml	34.4 ng/g or ng/ml	864.33 ng/g or ng/ml	1.97	4.47	3.34	0.028	0.03	0.04	> 30
NC(=O)[C@@H]1C[C@H](F)CN1Cc1ccc(OCc2cccc(F)c2)cc1F [Example 3, (2S,4S)-4-fluoro-1-(2-fluoro-4-(3-fluorobenzyloxy)benzyl)pyrrolidine-2-formamide]	8610 ng/g or ng/ml	56.67 ng/g or ng/ml	3496.67 ng/g or ng/ml	5253.33 ng/g or ng/ml	39.77 ng/g or ng/ml	1930 ng/g or ng/ml	1576.67 ng/g or ng/ml	13.05 ng/g or ng/ml	686.67 ng/g or ng/ml	2.46	2.72	2.3	0.016	0.021	0.019	
